Test results as given in patent US4879303A, “Pharmaceutically acceptable salts” (priority 1986, dated 1989).
Structures can show the parent of a compound that is named as a salt. Where two headings read alike, the source gives them in different places.

What was measured:
[1] = Stickiness: amlodipine sticking to tablet punch (processability); assay type: physicochemical; conditions: for Stickiness: runs of 50 to 300 tablets, calcium sulphate dihydrate/microcrystalline cellulose/salt 47.5:47.5:5, average from slope; for processability / anti-adhesion properties (in words): qualitative statement
Source text: 4. The final characteristic of an acceptable salt to be considered is the processability, i.e. the compression properties and also the ability not to stick or adhere to the tablet making machinery. For high dose formulations, good compressibility is very important to make elegant tablets. With lower dose tablets the need for good compressibility can be eliminated to a certain extent by the use of suitable diluting excipients called compression aids. Microcrystalline cellulose is a commonly used compression aid. However whatever the dose the adhesion of the drug to the punches of the tablet machine must be avoided. When drug accumulates on the punch surfaces this causes the tablet surface to become pitted and therefore unacceptable. […] In practice it is possible to reduce sticking by wet-massing, careful selection of excipients and the use of high levels of anti-adherents, e.g. magnesium stearate. […] This procedure was then repeated for runs of 100, 150, 200, 250 and 300 tables. After each run the amount of material sticking to the tablet punch was measured after extraction with methanol. The values are plotted and an average value calculated from the slope of the line produced. This same procedure was then repeated for each of the salts of amlodipine.

[2] = Aqueous solubility of amlodipine salts and pH at saturation; assay type: physicochemical; conditions: for solubility (in words): qualitative statement
Source text: Although amlodipine is effective as the free base, in practice it is best administered in the form of a salt of a pharmaceutically acceptable acid.
1. Generally, it is known in the art that a good aqueous solubility is necessary for good bioavailability. […] In addition, salts which provide solutions having a pH close to that of blood (7.4) are preferred because they are readily biocompatible and can easily be buffered to the required pH range without altering their solubility.

[3] = Chemical stability of salts blended in powder vehicle (tablets or capsules), breakdown products by tlc, ranked
Experimental: In order to screen for chemical stability, each of the salts was blended in a powder vehicle and formed into tablets or capsules. In the case of tablets the vehicle comprised microcrystalline cellulose in 50:50 combination with anhydrous dibasic calcium phosphate. In the case of capsules the vehicles comprised mannitol in 4:1 combination with dried maize starch. These were then stored in sealed vials at 50° and 75° C. for up to three weeks. The drug and any breakdown products were extracted with methanol:chloroform (50:50) and separated on silica tlc plates using a variety of solvent systems.
The results were compared and the salts ranked according to the number and amount of breakdown product produced.

[4] = Hygroscopicity: moisture pick-up on exposure to relative humidity; assay type: physicochemical; conditions: for moisture pick-up: 75% relative humidity, 37° C., 24 hours; for hydration state after exposure: 95% relative humidity, 30° C., 3 days
Source text: 3. In order to provide stable formulations it is desirable to have a non-hygroscopic salt. In the solid state where drug content is high, absorbed films of moisture can act as a vector for hydrolysis and chemical breakdown. It is the hygroscopic nature of a drug or its salt which contributes to the free moisture which is normally responsible for instability.
Therefore the besylate salt can be considered to be non-hygroscopic and thus provides stale formulations while minimising the risk of intrinsic chemical breakdown.

[5] = assay type: physicochemical
Source text: Consequently a range of pharmaceutically acceptable salts of amlodipine has been made and evaluated using these criteria: […]

[6] = Hydration / composition after isolation of the salt; assay type: physicochemical; conditions: after manufacture
[7] = listed as Benzene sulphonate (besylate)
[8] = listed as besylate salt of amlodipine
[9] = listed as Toluene sulphonate (tosylate)

SMILES	Stickiness relative to maleate [1] [%]	Stickiness [1]	Stability (rank order) [3]	moisture pick-up [4]	hydration state after exposure [4]	solubility [2] [µg/mL]	pH at saturation [2]	also measured
CCOC(=O)C1=C(COCCN)NC(C)=C(C(=O)OC)C1c1ccccc1Cl (stereo not drawn) [Free base, 3-ethyl 5-methyl 2-(2-aminoethoxymethyl)-4-(2-chlorophenyl)-1,4-dihydro-6-methylpyridine-3,5-dicarboxylate]	102	2.02 g Amlodipine cm^-2 tablet^-1	–	–	–	–	–	–
CCOC(=O)C1=C(COCCN)NC(C)=C(C(=O)OC)C1c1ccccc1Cl (stereo not drawn) [Besylate, amlodipine benzenesulphonate]	59	1.17 g Amlodipine cm^-2 tablet^-1	most stable	do not pick up any moisture	remain anhydrous	–	–	pH at saturation [2, 7]: 6.6; solubility [2, 7]: 4600 µg/mL; solubility (in words) [2, 8]: good solubility characteristics; stability (overall conclusion) [3]: good stability; hygroscopicity (overall conclusion) [4]: non-hygroscopic; hygroscopicity (overall conclusion) [4, 8]: non-hygroscopicity; processability / anti-adhesion properties (in words) [1]: superior anti-adhesion properties to the maleate; processability / anti-adhesion properties (in words) [1, 8]: good processability
CCOC(=O)C1=C(COCCN)NC(C)=C(C(=O)OC)C1c1ccccc1Cl (stereo not drawn) [Hydrochloride]	127	2.51 g Amlodipine cm^-2 tablet^-1	–	–	–	50000	3.5	–
CCOC(=O)C1=C(COCCN)NC(C)=C(C(=O)OC)C1c1ccccc1Cl (stereo not drawn) [Succinate]	121	2.39 g Amlodipine cm^-2 tablet^-1	.dwnarw.	–	–	4400	4.9	–
CCOC(=O)C1=C(COCCN)NC(C)=C(C(=O)OC)C1c1ccccc1Cl (stereo not drawn) [Maleate]	100	1.98 g Amlodipine cm^-2 tablet^-1	.dwnarw.	do not pick up any moisture	remain anhydrous	4500	4.8	solubility (in words) [2]: excellent solubility; stability in solution [5]: tends to break-down in solution after a few weeks
CCOC(=O)C1=C(COCCN)NC(C)=C(C(=O)OC)C1c1ccccc1Cl (stereo not drawn) [Salicylate]	–	–	–	–	–	1000	–	Stability (rank order) ([3]; powder vehicle tablets or capsules, sealed vials, 50° and 75° C., up to three weeks, ranked by number and amount of breakdown product, listed from most stable to unstable): .dwnarw.
CCOC(=O)C1=C(COCCN)NC(C)=C(C(=O)OC)C1c1ccccc1Cl (stereo not drawn) [Acetate]	–	–	.dwnarw.	–	–	50000	6.6	–
CCOC(=O)C1=C(COCCN)NC(C)=C(C(=O)OC)C1c1ccccc1Cl (stereo not drawn) [Mesylate]	58	1.16 g Amlodipine cm^-2 tablet^-1	.dwnarw.	–	–	–	–	pH at saturation ([2]; listed as Methane sulphonate (mesylate)): 3.1; processability / anti-adhesion properties (in words) [1]: good processability; hydration after isolation as the anhydride [6]: equilibrates to the monohydrate
CCOC(=O)C1=C(COCCN)NC(C)=C(C(=O)OC)C1c1ccccc1Cl (stereo not drawn) [Tosylate]	98	1.95 g Amlodipine cm^-2 tablet^-1	.dwnarw.	do not pick up any moisture	formed the dihydrate salt	–	–	pH at saturation [2, 9]: 5.9; solubility [2, 9]: 900 µg/mL
